# Measurements taken from patent US20260125370A1, “SULFOXIMINE COMPOUNDS AS HISTONE DEACETYLASE 6 INHIBITOR, AND PHARMACEUTICAL COMPOSITION COMPRISING THE SAME” (CHONG KUN DANG PHARMACEUTICAL CORP., priority 2022, published 2026).
# Columns and labels:
# human recombinant HDAC6 = target: T1, human recombinant HDAC6 (Homo sapiens, UniProt Q9UBN7); experiment: HDAC6 enzyme activity inhibition (fluorimetric, in vitro); assay type: biochemical; details: samples at 0.1, 1, 10, 100 and 1000 nM
# T1 construct: purchased Calbiochem 382180
# T1 sequence (Q9UBN7 1-1215): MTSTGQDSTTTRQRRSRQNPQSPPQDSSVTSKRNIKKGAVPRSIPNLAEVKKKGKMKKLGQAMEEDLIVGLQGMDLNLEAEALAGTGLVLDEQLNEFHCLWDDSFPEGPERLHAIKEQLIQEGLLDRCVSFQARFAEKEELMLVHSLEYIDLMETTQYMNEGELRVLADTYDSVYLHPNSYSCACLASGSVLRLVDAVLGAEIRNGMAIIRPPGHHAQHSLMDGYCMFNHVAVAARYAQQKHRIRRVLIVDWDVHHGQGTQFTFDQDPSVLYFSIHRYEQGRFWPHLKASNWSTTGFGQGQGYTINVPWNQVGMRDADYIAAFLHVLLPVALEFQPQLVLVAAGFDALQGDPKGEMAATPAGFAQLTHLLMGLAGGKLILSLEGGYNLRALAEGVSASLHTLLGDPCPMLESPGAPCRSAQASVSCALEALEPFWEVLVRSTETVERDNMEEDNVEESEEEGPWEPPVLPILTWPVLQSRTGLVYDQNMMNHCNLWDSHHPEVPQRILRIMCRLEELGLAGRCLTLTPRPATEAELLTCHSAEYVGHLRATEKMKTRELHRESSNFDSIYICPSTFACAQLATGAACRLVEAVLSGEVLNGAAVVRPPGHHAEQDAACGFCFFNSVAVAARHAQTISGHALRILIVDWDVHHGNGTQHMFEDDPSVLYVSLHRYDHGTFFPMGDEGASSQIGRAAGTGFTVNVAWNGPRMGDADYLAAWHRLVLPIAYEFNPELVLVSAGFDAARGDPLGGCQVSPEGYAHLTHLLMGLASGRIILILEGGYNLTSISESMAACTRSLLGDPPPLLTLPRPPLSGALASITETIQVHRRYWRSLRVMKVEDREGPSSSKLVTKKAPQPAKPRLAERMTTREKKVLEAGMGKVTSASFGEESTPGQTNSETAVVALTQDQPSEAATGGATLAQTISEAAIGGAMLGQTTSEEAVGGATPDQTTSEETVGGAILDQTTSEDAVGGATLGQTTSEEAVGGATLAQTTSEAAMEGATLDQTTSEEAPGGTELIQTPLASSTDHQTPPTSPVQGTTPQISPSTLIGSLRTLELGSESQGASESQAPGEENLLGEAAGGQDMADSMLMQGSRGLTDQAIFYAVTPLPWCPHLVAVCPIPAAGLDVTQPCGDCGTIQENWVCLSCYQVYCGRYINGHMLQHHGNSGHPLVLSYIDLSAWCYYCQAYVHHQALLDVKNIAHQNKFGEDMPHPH
# Method: (§1) A HDAC enzyme inhibitory capacity of a test material was measured by using HDAC1 Fluorimetric Drug Discovery Assay Kit (Enzolifesciences: BML-AK511) and HDAC6 human recombinant (Calbiochem: 382180). For a HDAC1 assay, samples were treated at a concentration of 100, 1000 and 10000 nM. For a HDAC6 assay, samples were treated at a concentration of 0.1, 1, 10, 100 and 1000 nM.
# (§2) For the test on the HDAC1 enzyme activity, human recombinant HDAC1 (BML-SE456) was used as a zymogen and Fluor de Lys®-SIRT1 (BNL-KI177) was used as a substrate. A 5-fold dilution of the compound was divided into a 96-well plate, after which 0.3 μg of the enzyme and […] of the substrate were inserted into each well and subjected to reaction at 37° C. for 60 minutes, such that Fluor de Lys® Developer II (BML-K1176) was inserted thereinto and subjected to reaction for 30 minutes and finished. After that, a fluorescence value (Ex 360, Em 460) was measured with a multi-plate reader (FlexStation 3, Molecular Device). An experiment on HDAC6 enzyme was conducted in accordance with the same protocol as in the HDAC1 enzyme activity test method by using human recombinant HDAC6 (382180) of Calbiochem Inc. For final result values, each IC50 value was calculated with GraphPad Prism 4.0 program.
# human recombinant HDAC1 = target: T2, human recombinant HDAC1 (Homo sapiens, UniProt Q13547); experiment: HDAC1 enzyme activity inhibition (HDAC1 Fluorimetric Drug Discovery Assay Kit, in vitro); assay type: biochemical; details: samples at 100, 1000 and 10000 nM
# T2 construct: purchased Enzolifesciences BML-SE456
# Method: as §1, §2
# T2 sequence (Q13547 whole entry): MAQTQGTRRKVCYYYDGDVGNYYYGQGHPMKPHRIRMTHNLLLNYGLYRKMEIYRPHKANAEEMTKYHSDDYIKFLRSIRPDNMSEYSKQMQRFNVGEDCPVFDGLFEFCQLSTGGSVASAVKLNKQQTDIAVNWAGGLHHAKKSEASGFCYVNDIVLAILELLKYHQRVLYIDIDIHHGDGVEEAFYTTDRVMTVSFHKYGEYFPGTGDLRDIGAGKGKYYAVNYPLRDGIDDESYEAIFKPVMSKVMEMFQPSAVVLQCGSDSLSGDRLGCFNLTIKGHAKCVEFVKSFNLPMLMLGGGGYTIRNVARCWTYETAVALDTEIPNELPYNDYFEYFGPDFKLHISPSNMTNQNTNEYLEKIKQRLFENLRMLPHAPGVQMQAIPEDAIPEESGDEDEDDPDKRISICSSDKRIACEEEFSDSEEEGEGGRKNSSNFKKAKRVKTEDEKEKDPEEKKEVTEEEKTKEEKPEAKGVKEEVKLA
SMILES,IC50 (human recombinant HDAC6) [nM],IC50 (human recombinant HDAC1) [nM]
"CS(=N)(=O)c1ccc(N(Cc2ccc(-c3nnc(C(F)F)o3)cc2F)C(=O)N2CCS(=N)(=O)CC2)cc1 (stereo not shown) [Compound 11, N-(4-(5-(difluoromethyl)-1,3,4-oxadiazol-2-yl)-2-fluorobenzyl)-1-imino-N-(4-(S-methylsulfonimidoyl)phenyl)thiomorpholin-4-carboxamide 1-oxide]",1420,> 10000
"N=S1(=O)CCN(C(=O)N(Cc2ccc(-c3nnc(C(F)F)o3)cc2F)c2cccs2)CC1 [Compound 12, N-(4-(5-(difluoromethyl)-1,3,4-oxadiazol-2-yl)-2-fluorobenzyl)-1-imino-N-(thiophen-2-yl)thiomorpholin-4-carboxamide 1-oxide]",62.6,> 10000
"N=S1(=O)CCN(C(=O)N(Cc2ccc(-c3nnc(C(F)F)o3)cc2F)c2cccc(F)c2)CC1 [Compound 13, N-(4-(5-(difluoromethyl)-1,3,4-oxadiazol-2-yl)-2-fluorobenzyl)-N-(3-fluorophenyl)-1-iminothiomorpholin-4-carboxamide 1-oxide]",44,> 10000
"Cn1ccc2cc(N(Cc3ccc(-c4nnc(C(F)F)o4)cn3)C(=O)N3CCS(=N)(=O)CC3)ccc21 [Compound 14, N-((5-(5-(difluoromethyl)-1,3,4-oxadiazol-2-yl)pyridin-2-yl)methyl)-1-imino-N-(1-methyl-1H-indol-5-yl)thiomorpholin-4-carboxamide 1-oxide]",94.4,> 10000
"CS(=N)(=O)c1ccc(N(Cc2ccc(-c3nnc(C(F)F)o3)cn2)C(=O)N2CCS(=N)(=O)CC2)cc1 (stereo not shown) [Compound 15, N-((5-(5-(difluoromethyl)-1,3,4-oxadiazol-2-yl)pyridin-2-yl)methyl)-1-imino-N-(4-(S-methylsulfonimidoyl)phenyl)thiomorpholin-4-carboxamide 1-oxide]",1350,> 10000
"N=S1(=O)CCN(C(=O)N(Cc2ccc(-c3nnc(C(F)F)o3)cn2)c2cccs2)CC1 [Compound 16, N-((5-(5-(difluoromethyl)-1,3,4-oxadiazol-2-yl)pyridin-2-yl)methyl)-1-imino-N-(thiophen-2-yl)thiomorpholin-4-carboxamide 1-oxide]",42.6,> 10000
N=S1(=O)CCN(C(=O)N(Cc2ccc(-c3nnc(C(F)F)o3)cn2)c2cccc(F)c2)CC1 [Compound 17],27.2,> 10000
"N=S1(=O)CCN(S(=O)(=O)N(Cc2ccc(-c3nnc(C(F)F)o3)cc2F)c2ccccc2)CC1 [Compound 18, N-(4-(5-(difluoromethyl)-1,3,4-oxadiazol-2-yl)-2-fluorobenzyl)-1-imino-N-phenylthiomorpholin-4-sulfonamide 1-oxide]",32.6,> 10000
"N=S1(=O)CCN(S(=O)(=O)N(Cc2ccc(-c3nnc(C(F)F)o3)cn2)c2ccccc2)CC1 [Compound 19, N-((5-(5-(difluoromethyl)-1,3,4-oxadiazol-2-yl)pyridin-2-yl)methyl)-1-imino-N-phenylthiomorpholin-4-sulfonamide 1-oxide]",19.7,> 10000
"N=S1(=O)CCN(C(=O)N(Cc2ccc(-c3nnc(C(F)F)o3)cc2F)c2ccc(Br)cc2)CC1 [Compound 20, N-(4-bromophenyl)-N-(4-(5-(difluoromethyl)-1,3,4-oxadiazol-2-yl)-2-fluorobenzyl)-1-iminothiomorpholin-4-carboxamide 1-oxide]",76.7,> 10000
"N=S1(=O)CCN(C(=O)N(Cc2ccc(-c3nnc(C(F)F)o3)cc2F)c2ccc(SC(F)(F)F)cc2)CC1 [Compound 21, N-(4-(5-(difluoromethyl)-1,3,4-oxadiazol-2-y1)-2-fluorobenzyl)-1-imino-N-(4-((trifluoromethyl)thio)phenyl)thiomorpholin-4-carboxamide 1-oxide]",294,> 10000
"N=S1(=O)CCN(C(=O)N(Cc2ccc(-c3nnc(C(F)F)o3)cc2F)c2ccc3c(c2)CCO3)CC1 [Compound 22, N-(4-(5-(difluoromethyl)-1,3,4-oxadiazol-2-y1)-2-fluorobenzyl)-N-(2,3-dihydrobenzofuran-5-yl)-1-iminothiomorpholin-4-carboxamide 1-oxide]",75.2,> 10000
"N=S1(=O)CCN(C(=O)N(Cc2ccc(-c3nnc(C(F)F)o3)cc2F)c2ccc(-c3ccco3)cc2)CC1 [Compound 23, N-(4-(5-(difluoromethyl)-1,3,4-oxadiazol-2-yl)-2-fluorobenzyl)-N-(4-(furan-2-yl)phenyl)-1-iminothiomorpholin-4-carboxamide 1-oxide]",64.4,> 10000
"N=S1(=O)CCN(C(=O)N(Cc2ccccc2)Cc2ccc(-c3nnc(C(F)F)o3)cc2F)CC1 [Compound 24, N-benzyl-N-(4-(5-(difluoromethyl)-1,3,4-oxadiazol-2-y1)-2-fluorobenzyl)-1-iminothiomorpholin-4-carboxamide 1-oxide]",1010,> 10000
"COc1ccccc1N(Cc1ccc(-c2nnc(C(F)F)o2)cc1F)C(=O)N1CCS(=N)(=O)CC1 [Compound 25, N-(4-(5-(difluoromethyl)-1,3,4-oxadiazol-2-y1)-2-fluorobenzyl)-1-imino-N-(2-methoxyphenyl)thiomorpholin-4-carboxamide 1-oxide]",141,> 10000
"N=S1(=O)CCN(C(=O)N(Cc2ccc(-c3nnc(C(F)F)o3)cc2F)c2ccsc2)CC1 [Compound 26, N-(4-(5-(difluoromethyl)-1,3,4-oxadiazol-2-yl)-2-fluorobenzyl)-1-imino-N-(thiophen-3-yl)thiomorpholin-4-carboxamide 1-oxide]",98.6,> 10000
"COc1ccc(N(Cc2ccc(-c3nnc(C(F)F)o3)cc2F)C(=O)N2CCS(=N)(=O)CC2)cc1 [Compound 27, N-(4-(5-(difluoromethyl)-1,3,4-oxadiazol-2-y1)-2-fluorobenzyl)-1-imino-N-(4-methoxyphenyl)thiomorpholin-4-carboxamide 1-oxide]",86.6,> 10000
"N=S1(=O)CCN(C(=O)N(Cc2ccc(-c3nnc(C(F)F)o3)cc2F)c2ccc3c(c2)CCC3)CC1 [Compound 28, N-(4-(5-(difluoromethyl)-1,3,4-oxadiazol-2-y1)-2-fluorobenzyl)-N-(2,3-dihydro-1H-inden-5-yl)-1-iminothiomorpholin-4-carboxamide 1-oxide]",92.2,> 10000
"CCOP(=O)(N=S1(=O)CCN(C(=O)N(Cc2ccc(-c3nnc(C(F)F)o3)cc2F)c2ccc(F)c(F)c2)CC1)OCC [Compound 29, Diethyl (4-((4-(5-(difluoromethyl)-1,3,4-oxadiazol-2-yl)-2-fluorobenzyl)(3,4-difluorophenyl)carbamoyl)-1-oxidothiomorpholin-1-ylidene)phosphoramidate]",78.8,> 10000
"CC(=O)N=S1(=O)CCN(C(=O)N(Cc2ccc(-c3nnc(C(F)F)o3)cn2)c2ccc(F)c(F)c2)CC1 [Compound 30, 1-(acetylimino)-N-((5-(5-(difluoromethyl)-1,3,4-oxadiazol-2-yl)pyridin-2-yl)methyl)-N-(3,4-difluorophenyl)thiomorpholin-4-carboxamide 1-oxide]",54.6,> 10000
